Values of other authors, collected in US20040014215A1, “Synchronised arabidopsis cell suspensions and uses thereof” (priority 2000, published 2004).

How the values were obtained:
[1] = system: purified CDK/cyclin complexes; settings: cited from earlier work
cell cycle = settings: phase of the cell cycle at which cells are arrested; cited from earlier work
tobacco BY-2 cell line = settings: BY-2 pre-synchronised with aphidicolin, then propyzamide for a few hours and removal; cited from earlier work
[2] = system: plant cells derived from a petunia protoplast culture; settings: cited from earlier work
[3] = system: Arabidopsis cell suspension cultures; settings: low concentration of cycloheximide, release by washing; cited from earlier work

In the case of `CC[C@H](CO)Nc1nc(NCc2ccccc2)c2ncn(C(C)C)c2n1` [roscovitine], the “histone H1 kinase activity” value [1] is listed as “inhibit the histone H1 kinase activity”.

In the case of `NC(=O)NO` [hydroxyurea], the cell cycle arrest (cell cycle) is given as “G1/S phase boundary”.

In the case of `C#CC(C)(C)NC(=O)c1cc(Cl)cc(Cl)c1` [propyzamide], the mitotic index (tobacco BY-2 cell line) is listed as 80-90%.

For `NC(Cn1ccc(=O)c(O)c1)C(=O)O` (stereo not drawn) [mimosine], the cell cycle arrest (cell cycle) is given as “early S” and the cell cycle block [2] is given as “reversible block during G1 and in early/mid S-phase”.

For `C[C@@H]1C[C@@H]([C@H](O)CC2CC(=O)NC(=O)C2)C(=O)[C@@H](C)C1` [cycloheximide], the peak mitotic index [3] is given as 9%.
